Reference: ChEMBL document CHEMBL1201862, “PubChem BioAssay data set” (2004)
Active and inactive are the calls of the source.

These compounds were tested against T1, Fatty acid synthase (Homo sapiens, UniProt P49327) (assay: FAS thioesterase domain inhibitors, dose response, biochemical, endpoint fluorescence intensity, uHTS hits (AID 624327)). Settings: not given.
T1 sequence (P49327 whole entry, the tested form may be a part): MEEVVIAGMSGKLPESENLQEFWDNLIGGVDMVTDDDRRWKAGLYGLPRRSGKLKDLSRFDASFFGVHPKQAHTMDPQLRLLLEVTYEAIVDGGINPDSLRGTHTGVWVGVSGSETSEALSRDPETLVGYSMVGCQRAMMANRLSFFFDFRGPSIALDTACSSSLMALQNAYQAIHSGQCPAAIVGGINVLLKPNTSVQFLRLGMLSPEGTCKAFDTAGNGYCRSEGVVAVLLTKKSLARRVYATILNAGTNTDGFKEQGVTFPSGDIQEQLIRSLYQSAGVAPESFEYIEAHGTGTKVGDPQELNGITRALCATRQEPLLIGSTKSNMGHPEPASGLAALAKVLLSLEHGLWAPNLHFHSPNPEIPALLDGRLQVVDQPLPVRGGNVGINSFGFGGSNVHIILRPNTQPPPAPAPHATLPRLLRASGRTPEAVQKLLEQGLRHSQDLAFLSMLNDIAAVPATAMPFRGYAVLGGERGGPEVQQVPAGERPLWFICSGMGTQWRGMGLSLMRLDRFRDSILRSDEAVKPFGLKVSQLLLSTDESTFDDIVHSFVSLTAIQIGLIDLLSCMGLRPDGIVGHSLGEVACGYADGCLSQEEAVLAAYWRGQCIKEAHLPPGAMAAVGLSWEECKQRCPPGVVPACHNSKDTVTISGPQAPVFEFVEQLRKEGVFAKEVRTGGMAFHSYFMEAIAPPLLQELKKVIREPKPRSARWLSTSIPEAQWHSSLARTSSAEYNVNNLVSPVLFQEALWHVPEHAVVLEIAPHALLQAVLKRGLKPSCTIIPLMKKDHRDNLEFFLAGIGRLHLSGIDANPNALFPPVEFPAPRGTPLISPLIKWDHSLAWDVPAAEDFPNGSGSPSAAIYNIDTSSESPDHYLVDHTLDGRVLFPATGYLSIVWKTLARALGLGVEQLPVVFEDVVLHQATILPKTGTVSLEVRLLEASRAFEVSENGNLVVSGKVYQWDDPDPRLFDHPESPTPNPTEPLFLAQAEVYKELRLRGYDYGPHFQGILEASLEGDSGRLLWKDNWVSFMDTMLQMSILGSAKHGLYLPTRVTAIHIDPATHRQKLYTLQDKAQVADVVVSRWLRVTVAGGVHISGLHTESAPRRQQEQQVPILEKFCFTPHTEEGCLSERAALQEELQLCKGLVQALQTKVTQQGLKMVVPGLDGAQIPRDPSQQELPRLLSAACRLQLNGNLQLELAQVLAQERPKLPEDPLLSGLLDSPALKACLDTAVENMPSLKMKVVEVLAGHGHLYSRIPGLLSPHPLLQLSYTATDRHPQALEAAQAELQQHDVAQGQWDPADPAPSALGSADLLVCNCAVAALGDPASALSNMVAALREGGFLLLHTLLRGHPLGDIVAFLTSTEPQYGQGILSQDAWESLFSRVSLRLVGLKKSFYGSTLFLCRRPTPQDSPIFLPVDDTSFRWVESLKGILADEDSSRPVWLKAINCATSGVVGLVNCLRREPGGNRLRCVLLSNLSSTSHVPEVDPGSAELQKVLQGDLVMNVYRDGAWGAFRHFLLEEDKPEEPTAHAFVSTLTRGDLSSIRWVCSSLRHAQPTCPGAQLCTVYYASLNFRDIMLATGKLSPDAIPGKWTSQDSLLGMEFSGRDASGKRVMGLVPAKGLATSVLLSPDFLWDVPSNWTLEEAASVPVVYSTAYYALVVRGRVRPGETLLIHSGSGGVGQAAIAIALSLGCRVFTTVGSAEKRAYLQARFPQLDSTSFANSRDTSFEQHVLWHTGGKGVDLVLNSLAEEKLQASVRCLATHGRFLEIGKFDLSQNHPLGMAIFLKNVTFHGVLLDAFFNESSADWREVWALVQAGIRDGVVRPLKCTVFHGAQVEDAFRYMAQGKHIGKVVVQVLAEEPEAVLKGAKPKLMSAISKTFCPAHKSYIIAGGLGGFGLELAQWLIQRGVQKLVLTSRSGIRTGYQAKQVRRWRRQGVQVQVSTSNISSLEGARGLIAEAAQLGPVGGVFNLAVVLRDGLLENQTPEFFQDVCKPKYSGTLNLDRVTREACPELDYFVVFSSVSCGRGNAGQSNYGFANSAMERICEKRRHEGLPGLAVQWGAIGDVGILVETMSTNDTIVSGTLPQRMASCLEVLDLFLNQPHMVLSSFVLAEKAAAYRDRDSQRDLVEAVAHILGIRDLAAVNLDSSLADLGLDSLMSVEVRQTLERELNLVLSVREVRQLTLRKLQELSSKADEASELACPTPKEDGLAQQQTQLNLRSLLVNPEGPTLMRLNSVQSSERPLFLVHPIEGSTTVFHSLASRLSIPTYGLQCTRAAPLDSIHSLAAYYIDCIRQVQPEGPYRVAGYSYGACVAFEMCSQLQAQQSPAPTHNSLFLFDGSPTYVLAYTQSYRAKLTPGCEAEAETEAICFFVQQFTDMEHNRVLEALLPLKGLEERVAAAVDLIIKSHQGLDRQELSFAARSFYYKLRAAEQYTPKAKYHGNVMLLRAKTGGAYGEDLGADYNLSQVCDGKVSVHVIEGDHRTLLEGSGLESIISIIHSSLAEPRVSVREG
Format: functional
With `O=C(CCC(=O)Nc1ccc(F)cc1)N/N=C/c1cc([N+](=O)[O-])ccc1O` the IC50 was 22.6 µM (inactive).
`CC(C)(C)NC(=O)NC(=O)COC(=O)C1CCN(S(=O)(=O)c2cccs2)CC1` was tested, and the IC50 was 12.8 µM (active).

Each compound was assayed on Streptococcus (assay: Group A Streptococcus viability loss, dose response, counter-screen for streptokinase expression inhibitor project, luminescence, BacTiterGlo (AID 1915)). Settings: not given.
Format: functional, organism-based
In the case of `O=C(c1ccc2c3n(nc2c1)-c1ccccc1CO3)N1CCCCC1`, the EC50 is reported as 30.6 µM (active).

These compounds were tested against T2, Streptokinase A (Streptococcus pyogenes serotype M1, UniProt P10520) (assay: S. pyogenes streptokinase expression inhibitors, potency, dose response, plasminogen activation absorbance, OD405 (AID 1914)). Settings: not given.
T2 sequence (P10520 whole entry): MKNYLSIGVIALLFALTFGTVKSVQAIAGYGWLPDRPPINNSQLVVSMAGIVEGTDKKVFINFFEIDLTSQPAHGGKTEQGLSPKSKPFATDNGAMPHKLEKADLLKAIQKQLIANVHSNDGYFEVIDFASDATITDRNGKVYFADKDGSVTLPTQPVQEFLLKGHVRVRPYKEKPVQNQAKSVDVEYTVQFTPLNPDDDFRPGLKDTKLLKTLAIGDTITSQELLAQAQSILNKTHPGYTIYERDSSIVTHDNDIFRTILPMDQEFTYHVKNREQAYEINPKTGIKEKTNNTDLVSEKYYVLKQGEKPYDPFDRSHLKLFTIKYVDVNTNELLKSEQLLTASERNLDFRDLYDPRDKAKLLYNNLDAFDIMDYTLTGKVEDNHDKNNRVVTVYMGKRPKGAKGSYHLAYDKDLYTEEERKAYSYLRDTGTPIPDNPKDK
Format: functional, Streptococcus pyogenes M1 GAS
For `O=C(c1ccc2c3n(nc2c1)-c1ccccc1CO3)N1CCCCC1`, the EC50 was > 150 µM (not active).

Each compound was assayed against T3, Caspase-6 (Homo sapiens, UniProt P55212) (assay: human caspase-6 inhibitors, dose response, biochemical, VEID-R110 fluorescence, cherry-pick (AID 720632)). Settings: not given.
T3 sequence (P55212 whole entry): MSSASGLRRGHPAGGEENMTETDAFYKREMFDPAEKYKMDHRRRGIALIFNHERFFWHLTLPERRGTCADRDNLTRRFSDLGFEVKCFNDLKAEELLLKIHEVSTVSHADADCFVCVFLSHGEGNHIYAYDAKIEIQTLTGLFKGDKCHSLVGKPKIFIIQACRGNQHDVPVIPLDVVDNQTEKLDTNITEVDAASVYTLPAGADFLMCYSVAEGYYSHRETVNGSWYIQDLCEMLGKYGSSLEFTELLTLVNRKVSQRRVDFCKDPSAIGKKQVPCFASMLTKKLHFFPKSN
For `Cc1ccccc1S(=O)(=O)N1[C@@H]2CNC[C@H]1[C@@H]2c1ccc(-c2ccc(C#N)cc2)cc1`, the AC50 was 30.9 µM (active).
With `CCC12CCCN3CCc4c(n(c5ccccc45)C(O)(C(=O)OC)C1)C32` (stereo not given) the AC50 was 21.7 µM (active).
In the case of `Cc1ccccc1CN1[C@@H](C)[C@H](c2ccccc2)Oc2cccc(NCC(C)C)c2S1(=O)=O`, the AC50 is reported as 23.3 µM (active).

Each compound was assayed against Prothrombin (Homo sapiens, UniProt P00734) (assay: Thrombin 1536 HTS Dose Response Confirmation. [Related pubchem assays: 1046 (Thrombin 1536 HTS; hits were confirmed in this assay)]). Settings: not given.
Format: functional
`COc1ccccc1NC(=O)CCS(=O)(=O)c1ccccc1` was tested, and the IC50 was > 50 µM (not active).
For `CC(Sc1nnc(-c2cc3ccccc3o2)n1-c1ccccc1)C(=O)O` (stereo not given), the IC50 was > 50 µM (not active).
For `O=C(NNC(=O)C(c1ccccc1)c1ccccc1)c1cccs1`, the IC50 was > 50 µM (not active).
With `CCC(=O)n1nc(-c2ccco2)nc1SCc1ccccc1` the IC50 was 0.00342 µM (active).

The compounds below were run on Streptococcus sp. 'group A' (assay: growth inhibition of control SK(-) GAS strain, dose response, counter-screen for streptokinase expression inhibitor project, luminescence, kanamycin, BacTiterGlo, confirmation (AID 1900)). Settings: not given.
Format: functional, organism-based
In the case of `O=C(c1ccc2c3n(nc2c1)-c1ccccc1CO3)N1CCCCC1`, the EC50 is reported as 11.9 µM (active).

These compounds were tested on BJ (assay: cytotoxicity toward Ras-transformed BJeLR fibroblasts, dose response, cell-based, alamar blue fluorescence, cherrypicked samples (AID 2631)). Settings: Homo sapiens.
Format: functional
In the case of `O=C(c1ccc2c3n(nc2c1)-c1ccccc1CO3)N1CCCCC1`, the EC50 is reported as > 133 µM (inactive).

What follows are compounds tested against T1, Fatty acid synthase (assay: FAS thioesterase domain inhibitors, dose response, biochemical, kinetic fluorescence intensity (AID 624326)). Settings: not given.
Format: functional
For `O=C(CCC(=O)Nc1ccc(F)cc1)N/N=C/c1cc([N+](=O)[O-])ccc1O`, the IC50 was 15.1 µM (active).
In the case of `CC(C)(C)NC(=O)NC(=O)COC(=O)C1CCN(S(=O)(=O)c2cccs2)CC1`, the IC50 is reported as 9.75 µM (active).
